Test results: BindingDB's records for doi:10.1021/jm00095a029 (Warner-Lambert, 1992)
Non-standard residues stand in square brackets, D forms with d. Residues, ends and D or L forms follow the SMILES beside them.

Tested on: Endothelin A receptor
Assay: ChEBML_63192

CC[C@H](C)[C@H](NC(=O)[C@H](CC(=O)O)NC(=O)[C@H](CC(C)C)NC(=O)[C@@H](Cc1ccc(O)cc1)NC(C)=O)C(=O)N[C@H](C(=O)N[C@@H](Cc1c[nH]c2ccccc12)C(=O)O)[C@@H](C)CC (Ac-[dY]LDIIW-OH) gave an IC50 of 400 nM.
